Data as given in US5334761A, “Cationic lipids” (Life Technologies, Inc., priority 1992, dated 1994).
Structures can show the parent of a compound that is named as a salt.

Assays:
[1] = % protein (toxicity estimate, Bradford) after transfection; format: cell-based, rat; details: rat, pc12 cells; 40 μg lipid; 2 μg pCMVCAT; 6 h DMEM
Protocol: (§1) A one-to-one mixture (by weight) of the desired lipid and dioleylphosphatidyl ethanolamine was prepared in CHCl3. The CHCl3 was removed on the rotary evaporator to obtain a thin film of lipid mixture. The mixture was hydrated with enough water to obtain approximately 1.25 mg of lipid per ml of solution. The solution was passed through a microfluidizer twice and diluted to 1 mg/ml. The liposome formulation was then filtered through a 0.2 μ filter. Compound 8 was also formulated without DOPE either by sonication at 1 mg/ml in water or by dissolving a dried lipid film with ethanol and then adding water to give a final concentration of 2.5 mg/ml. Ethanol was 10% of that volume. In some instances, this was further diluted with water to 1 mg/ml, 4% ethanol.
(§2) Baby hamster kidney (BHK-21) , COS-7, HeLa-S3 cells, and normal human fibroblasts isolated from newborn foreskin dermis were grown in Dulbecco's-modified Eagle's medium (DMEM) containing 10% fetal bovine serum (FBS), 2 mM L-glutamine (gln), 0.1 mM MEM nonessential amino acids (NEAA), 100 U/ml penicillin, and 100 μg/ml streptomycin. […]
(§3) The "% protein" column indicates the relative amount of protein in the sample tested for CAT activity and therefore provides a way to estimate toxicity of the compounds being tested. […] Protein was measured using a commercially available Bradford protein assay (BioRad Laboratories, Richmond, Ca.). […]

PC12 cells = experiment: as above; format: cell-based, rat; details: PC12
Protocol: as §1, §2, §3

[2] = as above; format: cell-based; details: monkey, cos-7 cells; 12 μg lipid; 1 μg pSV2CAT; 6 h DMEM
Protocol: as §1, §2, §3

COS-7 cells = experiment: as above; format: cell-based; details: Cos-7
Protocol: as §1, §2, §3

[3] = as above; format: cell-based, human; details: human, jurkat cells, 15 μg lipid; 2 μg pCMVCAT; 6 h RPMI1640
Protocol: as §1
(§4) Baby hamster kidney (BHK-21) , COS-7, HeLa-S3 cells, and normal human fibroblasts isolated from newborn foreskin dermis were grown in Dulbecco's-modified Eagle's medium (DMEM) containing 10% fetal bovine serum (FBS), 2 mM L-glutamine (gln), 0.1 mM MEM nonessential amino acids (NEAA), 100 U/ml penicillin, and 100 μg/ml streptomycin. NIH-3T3 cells were grown in DMEM containing 10% calf serum (CS), 2 mMgln, 0.1 mM NEAA 100 U/ml penicillin, and 100 μg/ml streptomycin. PC12 cells were grown in DMEMcontaining 10% horse serum, 5% FBS, 2 mM gln, 0 1 mMNEAA, 100 U/ml penicillin and 100 μ/ml streptomycin. Jurkat cells (human lymphoid cell line) were grown in RPMI-1640 supplemented with 10% FBS, 2mML-glutamine, 100 U/ml penicillin, and 100 μg/ml streptomycin. Human keratinocytes were isolated from newborn foreskin epidermis and cultured in Keratinocyte Growth Medium (Clonetics, San Diego, Ca.). All cell lines were maintained in a humidified incubator with a 5% CO2 atmosphere at 37° C.
(§5) For transient nuclear expression of pSV2CAT or pCMVCAT in Jurkat cells, cells were washed with Opti-MEM I or serum-free RPMI 1640 containing 2 mM gln and plated in six-well plates at a density of 3×10^6 cells per well in 0.8 ml Opti-MEM I or RPMI 1640. For each transfection, 5 μg pSV2CAT DNA or 2 μg pCMVCAT DNA was diluted in 100 μl Opti-MEM I. Lipids were diluted separately in another 100 μl aliquot of Opti-MEMI. The two solutions were then mixed in a polystyrene tube and incubated for 10-15 min at room temperature. The DNA-liposome complex was added to the cell suspensions and incubated 6 hours at 37° C., after which 4 ml growth medium were added per well (RPMI-1640; 10% FBS). Phorbol myristate acetate (Sigma Chemical Co., St. Louis, Mo.) and phytohemagglutinin (Sigma) were also added to a final concentration of 50 ng/ml and 1 μg/ml, respectively, to activate the cells. Cells were harvested at approximately 48 hours post-transfection by centrifugation. Cell lysates were prepared by resuspending cell pellets at 0° C. in 0.1 M Tris-HC1 pH 8.0 containing 0.1% Triton X-100 and freeze-thawing once. Cell lysates were cleared by centrifugation and assayed for CAT activity.
(§6) The "% protein" column indicates the relative amount of protein in the sample tested for CAT activity and therefore provides a way to estimate toxicity of the compounds being tested. The "CAT Activity" column indicates the relative transfection effectiveness of the lipid formulation in the various cell lines. The control sample was a cell culture grown under similar conditions as those that were transfected, but with no DNA or cationic lipid added. Protein was measured using a commercially available Bradford protein assay (BioRad Laboratories, Richmond, Ca.).
(§7) Jurkat cells (3 × 10^6 cells) were transfected in OPTIMEM with
(§8) μg of pSV2CAT DNA for 6 hours.
(§9) DNA-lipid complexes were made in OPTIMEM. Jurkat cells (3 × 10^
(§10) cells) were transfected in RPMI1640 with 2 μg of pCMVCAT DNA for 6

Jurkat cells = experiment: as above; format: cell-based, human; details: Jurkat
Protocol: as §1, §4, §5, §6, §7, §8, §9, §10

CCCCCCCC/C=C\CCCCCCCCOCC(C[N+](C)(C)CCNC(=O)C(CCCNCCCN)NCCCN)OCCCCCCCC/C=C\CCCCCCCC (stereo not drawn) [Compound 8, 1-Propanaminium, N-[2-[[2,5-bis[(3-amino]-1-oxopentyl]amino]ethyl]-n,n-dimethyl-2,3,-bis(9-octadecenyloxy)-, tetra(trifluoroacetate) salt]
viability at 6 h [1]: 66%
toxicity (in words) (PC12 cells): minimal toxicity
viability at 6 h [2]: 99.1%
toxicity (in words) (COS-7 cells): minimal toxicity
viability at 6 h [3]: 47%
toxicity (in words) (Jurkat cells): minimal toxicity
